Ends that are not written are not given here.
Experiments:
[1] = tested on: Klebsiella pneumonia (1.1736); assay type: cell-based, Klebsiella pneumoniae
Source text: (§1) The LL-37, SAAP-148 and its analogues peptides were synthesized according to the standard Fmoc procedure. The Fmoc-protected resin and monomers are first treated with a basic solvent (piperidine) to remove the amino protecting groups. The carboxyl group of the next amino acid is activated by an activator. The activated monomer reacts with the free amino group to form a peptide bond. These two steps are repeated in a cycle until the synthesis is complete. After synthesis, the peptide is eluted from the column and purified by reverse-phase semipreparative high-performance liquid chromatography as detailed in Table 1. The peptides were dissolved in PBS to create a 1000 μmol/L stock solution for subsequent use. The purity of the synthetic peptide exceeded 95%. Blood samples from healthy donors were obtained from the Fifth Medical Center of Chinese PLA General Hospital (Beijing, China). Human normal lung epithelial cells (BEAS-2B) and mouse mononuclear macrophages cells (RAW 264.7) were sourced from Beyotime Biotechnology (Beijing, China), along with the Enhanced Cell Counting Kit-8 (CCK-8) and nitric oxide detection kit. RPMI-1640 and DMEM were procured from Merck (Darmstadt, Germany), while FBS was obtained from ExCell Bio (Shanghai, China). LPS-B5 (from E. coli 055:B5) was procured from Invivogen (Toulouse, France). Five bacterial strains, including Escherichia coli (1.8732), Pseudomonas aeruginosa (1.2421), Klebsiella pneumonia (1.1736) as Gram-negative bacteria, and Staphylococcus aureus (1.8721) and Staphylococcus epidermidis (1.4260) as Gram-positive bacteria, were procured from the China General Microbiological Culture Collection Centre (CGMCC) (Beijing, China).
(§2) The antibacterial activities of the peptides against […] were evaluated using a modified version of the Clinical Laboratory and Standards Institute (CLSI) broth microdilution method, as previously described. Briefly, the bacteria were cultured in liquid LB medium (comprising 10 g/L tryptone, 5 g/L yeast extract, and 10 g/L NaCl) at 37 °C until reaching mid-log phase. Subsequently, the bacterial concentration was adjusted to 1 × 10^6 colony-forming units (CFU)/mL. The peptides were then diluted serially with phosphate-buffered saline (PBS), followed by the addition of 50 μL of the diluted peptides to 50 μL of the bacterial suspension in a 96-well plate (Corning Inc., Lowell, MA, USA). After incubating at 37 °C for 18 to 20 h, the absorbance of each well was measured using a multi-well microplate reader (SpectraMax M5; Molecular Devices, Sunnyvale, CA, USA) at 600 nm.

[2] = tested on: human erythrocytes; assay: Haemolytic activity; assay type: cell-based
Protocol: The haemolytic activity of the peptides was evaluated using a standard procedure with minor adjustments. Fresh human erythrocytes were washed thrice and subsequently resuspended at 1.25% haematocrit in PBS. Forty microlitres PBS-diluted peptide solution was added to a 96-well plate (Corning Inc., Lowell, MA, USA), and 160 μL of erythrocytes was added. After incubation at 37 °C for 30 min, the samples were centrifuged, and the absorbance of the supernatant was measured at 450 nm using a multi-well microplate reader (SpectraMax M5; Molecular Devices, Sunnyvale, CA, USA) and compared with the 100% haemolysis caused by 0.1% Triton X-100. The percentage of haemolysis was calculated according to the equation: Haemolysis%=Asample−Ablank/Atriton−Ablank×100

[3] = tested on: Staphylococcus aureus (1.8721); assay type: cell-based
Source text: as §1, §2

[4] = tested on: Pseudomonas aeruginosa (1.2421); assay type: cell-based
Source text: as §1, §2

[5] = tested on: Escherichia coli (1.8732); assay type: cell-based
Source text: as §1, §2

[6] = tested on: Staphylococcus epidermidis (1.4260); assay type: cell-based
Source text: as §1, §2

[7] = Reversed-phase HPLC retention time as measure of peptide hydrophobicity; assay type: physicochemical; conditions: retention time by reverse-phase HPLC, reflects hydrophobicity difference between analogues
Source text: The physicochemical parameters crucial for the antimicrobial activity of AMPs have been identified, encompassing net charge, helicity, hydrophobicity, and amphipathicity. The hydropathicity, mean relative hydrophobic moment, and charge of peptides were predicted using the HeliQuest (https://heliquest.ipmc.cnrs.fr/ (accessed on 12 March 2024)). Lysine is a hydrophilic amino acid, and its substitution leads to a decrease in the hydrophobicity of the SAAP-148 analogue. The anticipated results are consistent, with the degree of reduction in […] varying depending on the position at which lysine is substituted (Table 2). The amphipathicity of the peptides, as denoted by the μH (mean relative hydrophobic moment), is elaborated on in Table 2. The hydrophobic moment of SAAP-148 analogues was decreased except for SAAP-10, which is on account of the substitution occurring on the18th residue. (Figure 1) The 18th residue of SAAP-148 is glutamine, a polar amino acid residue, located at the junction of the hydrophobic and hydrophilic surfaces of the SAAP-148 α-helix. […] The retention time data determined by reversed-phase high-performance liquid chromatography (RP-HPLC) reflects the hydrophobicity difference between peptide analogues. It is well documented that the formation of a hydrophobic-binding domain due to peptide secondary structure can affect peptide interactions with reversed-phase matrices. This effect was observed particularly for amphipathic α-helical peptides. Given this preferred binding domain, amphipathic α-helical peptides are considerably more retentive than non-amphipathic peptides with the same amino acid composition.
This phenomenon was particularly evident in the case of amphipathic α-helical peptides. […] This discrepancy may be attributed to the lack of a well-defined α-helical structure in SAAP-148 and its analogues (Figure S1).

[8] = tested on: human erythrocytes versus five bacterial strains; assay: Therapeutic index (MHC/GM of MIC); conditions: for Fold (TI of analogue compared with SAAP-148): TI change relative to SAAP-148; for TI (MHC/MIC): ratio of MHC to geometric mean of MIC (five strains)
Protocol: The geometric mean of minimum inhibitory concentration (MIC) values (GM) from the five strains was calculated to provide a comprehensive assessment of antimicrobial activity, as presented in Table 4.
The therapeutic index (TI) is a widely utilized parameter for indicating the specificity of antimicrobial agents, which is determined by the ratio of MHC (hemolytic activity) and MIC (antimicrobial activity). Consequently, larger TI values signify greater antimicrobial specificity. The TI can be enhanced through one of three mechanisms: increasing antimicrobial activity, reducing hemolytic activity while maintaining antimicrobial activity, or a combination of both augmenting antimicrobial activity and diminishing hemolytic activity.

[9] = CD spectra, secondary structure by BeStSel; assay type: physicochemical; conditions: 30 μM SDS as printed, 100 μM peptide, 25 °C
Protocol: CD spectra (Figure S1) were acquired using a JASCO J-1500 spectropolarimeter (JASCO Inc., Easton, MD, USA) in 0.1 cm pathlength cells under nitrogen at 25 °C. The spectra were recorded in the range of 190 to 250 nm at a peptide concentration of 100 μM in SDS. Secondary structure was determined using the BeStSel server. Hydropathicity, mean relative hydrophobic moment, and charge of peptides were predicted using the HeliQuest (https://heliquest.ipmc.cnrs.fr/ (accessed on 12 March 2024)). The 3D structure of SAAP-148 and its analogues (Figure S2) was predicted using PEP-FOLD4 servers (https://bioserv.rpbs.univ-paris-diderot.fr/services/PEP-FOLD4/ (accessed on 19 June 2024)).

[10] = tested on: Gram-positive bacteria (S. aureus, S. epidermidis); assay: Geometric mean of MICs against Gram-positive bacteria; assay type: cell-based; design: unit not given here
Protocol: as §2

[11] = tested on: Gram-negative bacteria (E. coli, P. aeruginosa, K. pneumoniae); assay: Geometric mean of MICs against Gram-negative bacteria; assay type: cell-based; design: unit not given here
Protocol: as §2

[12] = tested on: five bacterial strains; assay: MICs against all five bacterial strains (geometric mean, range); assay type: cell-based; design: unit not given here; conditions: geometric mean of MICs against all five bacterial strains
Protocol: as §2

[13] = tested on: LPS-induced NO in RAW264.7 macrophages; assay: Inhibition of LPS-induced NO production, Griess assay; assay type: cell-based, mouse; conditions: 6.25 μM peptide, LPS 100 ng/mL, 24 h, Griess assay (Figure 4)
Source text: LL-37 is a promising peptide for the regulation of inflammation and mitigation of endotoxin impact due to its ability to directly bind to LPS and counteract its biological effects, such as the inhibition of interleukin-6 (IL-6), interleukin 1β (IL-1β), and LPS-induced nitric oxide (NO). We conducted a series of experiments to assess the effectiveness of SAAP-148 and its analogues in reducing NO production by mouse mononuclear pacrophages cells (RAW264.7) after LPS stimulation. […] Subsequently, we employed a Griess assay to evaluate the levels of nitrite in RAW264.7 cells following treatment with SAAP-148 and its analogues, both with and without LPS treatment.
RAW264.7 cells were cultured in DMEM supplemented with 10% (v/v) FBS, 2 mM L-glutamine, 100 U/mL penicillin, and […] streptomycin, and maintained in a humidified incubator with 5% CO2 at 37 °C. Subsequently, RAW264.7 cells (1.5 × 10^4 cells/well) were seeded in 96-well plates (Corning Inc., Lowell, MA, USA) and incubated overnight. […] After incubation for 24 h, the culture supernatant was collected, and NO assay was performed according the instruction. The absorbance of the sample was measured at 550 nm.

Substance	MIC K. pneumoniae [1] [µM]	haemolytic activity compared with SAAP-148 [2]	MIC S. aureus [3] [µM]	MIC P. aeruginosa [4] [µM]	MIC E. coli [5] [µM]	MIC S. epidermidis [6] [µM]	Rt [7] [min]	Fold (TI of analogue compared with SAAP-148) [8]	TI (MHC/MIC) [8]	Others [9] [%]	Turn [9] [%]	α-Helix [9] [%]	β-Antiparallel [9] [%]	β-Parallel [9] [%]	GM to G+ [10]	GM to G− [11]	MIC (GM) [12]	fold increase of MHC over that of SAAP-148 [2] [fold]	NO inhibition ability [13]
LKRVWKRVFKLLKRYWRQLKKKVR-NH2 [SAAP-12]	100.00	comparable hemolytic activity to SAAP-148	25.00	12.50	12.50	6.25	16.604	0.36	0.04	0	0	100	0	0	12.5	25	18.95		
LKRVWKRKFKLLKRYWRQLKKPVR-NH2 [SAAP-4]	100.00		100.00	3.13	1.56	3.13	9.96	83.55	9.19	3.6	0	50.9	45.5	0	17.69	7.87	10.88	133.33	
LKRVWKRVFKLLKRYWRQLKKPVR-NH2 [SAAP-148]	6.25		50.00	3.13	6.25	3.13	12.416		0.11	0	0	93.5	6.5	0	12.51	4.96	7.18		comparable efficacy to LL-37
KKRVWKRVFKLLKRYWRQLKKPVR-NH2 [SAAP-1]	6.25	comparable hemolytic activity to SAAP-148	50.00	3.13	3.13	3.13	11.419	1.1	0.12	0	0	93.5	6.5	0	12.51	3.94	6.25		
LKRKWKRVFKLLKRYWRQLKKPVR-NH2 [SAAP-2]	12.50	comparable hemolytic activity to SAAP-148	50.00	3.13	3.13	3.13	12.532	1	0.11	0	0	93.5	6.5	0	12.51	4.97	7.18		
